Test results taken from patent US20250320213A1, “Nitrogen-Containing Heterocyclic Compounds” (Pfizer Inc., priority 2024, published 2025).

Legend:
[1] = test system: CCL17 secretion in peripheral human whole blood; test: Human Whole Blood (HWB) CCL17 TR-FRET Assay (IL-13 stimulated CCL17 secretion); format: cell-based; conditions: Homo sapiens, 48 h, human whole blood, IL-13 stimulated
How it was run: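 Compounds are titrated (11 points, 3-fold, duplicate) into fresh heparinized human whole blood and held 2 h at 37 °C before IL-13 challenge (10 ng/mL final). After 48 h at 37 °C, serum CCL17 is measured by TR-FRET sandwich assay and IC50 values are calculated.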

[2] = target: T1, STAT6 (Homo sapiens, UniProt P42226); test: STAT6 Reporter Luciferase Assay (IL-13 stimulated HaCaT keratinocyte NanoLuc reporter cells); format: cell-based; conditions: IL-13 stimulated HaCaT STAT6 NanoLuc reporter cells; read-out: Reporter EC50
T1 construct: stably transfected HaCaT keratinocyte cell line, which expresses NanoLuc luciferase reporter gene under the transcriptional control of the STAT6 responsive promoter; endogenous in cells; host or cells: HaCaT keratinocyte reporter cell line (stably transfected with a NanoLuc reporter)
T1 sequence (P42226 1-847): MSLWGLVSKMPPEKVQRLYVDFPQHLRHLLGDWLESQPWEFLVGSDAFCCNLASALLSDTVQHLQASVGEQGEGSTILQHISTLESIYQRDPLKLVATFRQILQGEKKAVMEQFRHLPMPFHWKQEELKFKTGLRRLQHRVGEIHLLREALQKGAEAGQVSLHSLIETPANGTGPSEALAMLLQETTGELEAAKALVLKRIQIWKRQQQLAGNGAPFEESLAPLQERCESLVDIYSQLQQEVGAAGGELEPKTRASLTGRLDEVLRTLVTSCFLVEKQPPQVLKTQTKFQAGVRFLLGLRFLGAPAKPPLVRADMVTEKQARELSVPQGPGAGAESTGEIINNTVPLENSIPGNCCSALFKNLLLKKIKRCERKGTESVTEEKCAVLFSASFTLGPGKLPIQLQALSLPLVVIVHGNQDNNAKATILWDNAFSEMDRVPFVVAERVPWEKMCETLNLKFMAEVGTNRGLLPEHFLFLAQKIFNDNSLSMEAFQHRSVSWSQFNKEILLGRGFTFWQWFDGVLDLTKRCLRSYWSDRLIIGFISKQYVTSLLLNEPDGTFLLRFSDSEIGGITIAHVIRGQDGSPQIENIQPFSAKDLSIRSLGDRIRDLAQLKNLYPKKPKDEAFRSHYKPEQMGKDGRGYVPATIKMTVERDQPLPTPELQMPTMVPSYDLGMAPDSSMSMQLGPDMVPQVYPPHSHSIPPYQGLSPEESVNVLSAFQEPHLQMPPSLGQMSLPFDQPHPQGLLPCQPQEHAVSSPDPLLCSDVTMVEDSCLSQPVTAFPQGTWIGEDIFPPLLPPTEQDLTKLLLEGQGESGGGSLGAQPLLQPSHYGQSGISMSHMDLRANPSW
How it was run: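 Luminescence from a NanoLuc reporter driven by the STAT6-responsive IL-13Ra2 promoter in HaCaT keratinocytes serves as the read-out. Compounds are given 2 h before a 4 h stimulation with 0.12 nM IL-13.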

Compound | IC50 [1] | EC50 [2]
CN(C)C(=O)Nc1ccc(CNC(=O)c2nn(C3CCCC3)c3c2CN(c2ccc(C(=O)N(C)C)cn2)CC3)cc1 [Example 264, 1-cyclopentyl-5-(5-(dimethylcarbamoyl)pyridin-2-yl)-N-(4-(3,3-dimethylureido)benzyl)-4,5,6,7-tetrahydro-1H-pyrazolo[4,3-c]pyridine-3-carboxamide] | 131 nM | 7 nM
CCn1nc(C(=O)NCc2ccc(-c3ncc[nH]3)cc2)c2c1[C@@H](C)CN(c1ccc(C(=O)N(C)C)cn1)C2 [Example 283, (S)-N-(4-(1H-imidazol-2-yl)benzyl)-5-(5-(dimethylcarbamoyl)pyridin-2-yl)-1-ethyl-7-methyl-4,5,6,7-tetrahydro-1H-pyrazolo[4,3-c]pyridine-3-carboxamide] | 11 nM | 2 nM
CCn1nc(C(=O)NCc2ccc(C(=O)NC)cc2)c2c1[C@@H](C)CN(c1ccc(C(=O)N(C)C)cn1)C2 [Example 284, (S)-5-(5-(dimethylcarbamoyl)pyridin-2-yl)-1-ethyl-7-methyl-N-(4-(methylcarbamoyl)benzyl)-4,5,6,7-tetrahydro-1H-pyrazolo[4,3-c]pyridine-3-carboxamide] | 40 nM | 8 nM
CCn1nc(C(=O)NCc2ccc(-c3ncc[nH]3)cc2)c2c1[C@@H](C)CN(c1ncc(C(=O)N(C)C)cn1)C2 [Example 301, (S)-N-(4-(1H-imidazol-2-yl)benzyl)-5-(5-(dimethylcarbamoyl)pyrimidin-2-yl)-1-ethyl-7-methyl-4,5,6,7-tetrahydro-1H-pyrazolo[4,3-c]pyridine-3-carboxamide] | 8 nM | 1 nM
CCn1nc(C(=O)NCc2ccc(NC(=O)N(C)C)cn2)c2c1[C@@H](C)CN(c1ccc(C(=O)N(C)C)cn1)C2 [Example 302, (S)-5-(5-(dimethylcarbamoyl)pyridin-2-yl)-N-((5-(3,3-dimethylureido)pyridin-2-yl)methyl)-1-ethyl-7-methyl-4,5,6,7-tetrahydro-1H-pyrazolo[4,3-c]pyridine-3-carboxamide] | 9 nM | 6 nM
CCn1nc(C(=O)NCc2ccc(NC(=O)N(C)C)cn2)c2c1[C@@H](C)CN(c1ncc(C(=O)N(C)C)cn1)C2 [Example 305, (S)-5-(5-(dimethylcarbamoyl)pyrimidin-2-yl)-N-((5-(3,3-dimethylureido)pyridin-2-yl)methyl)-1-ethyl-7-methyl-4,5,6,7-tetrahydro-1H-pyrazolo[4,3-c]pyridine-3-carboxamide] | 7 nM | 5 nM
CCn1nc(C(=O)NCc2ccc(C(=O)NC)cc2)c2c1[C@@H](C)CN(c1ncc(C(=O)N(C)C)cn1)C2 [Example 306, (S)-5-(5-(dimethylcarbamoyl)pyrimidin-2-yl)-1-ethyl-7-methyl-N-(4-(methylcarbamoyl)benzyl)-4,5,6,7-tetrahydro-1H-pyrazolo[4,3-c]pyridine-3-carboxamide] | 33 nM | 7 nM
CN(C)C(=O)Nc1ccc(CNC(=O)c2nn(C3(C(F)(F)F)CC3)c3c2CN(c2ccc(C(=O)N(C)C)cn2)CC3)cc1 [Example 320, 5-(5-(dimethylcarbamoyl)pyridin-2-yl)-N-(4-(3,3-dimethylureido)benzyl)-1-(1-(trifluoromethyl)cyclopropyl)-4,5,6,7-tetrahydro-1H-pyrazolo[4,3-c]pyridine-3-carboxamide] | 135 nM | 5 nM
CCn1nc(C(=O)NCc2ccc(NC(=O)N(C)C)nc2)c2c1[C@@H](C)CN(c1ccc(C(=O)N(C)C)cn1)C2 [Example 323, (S)-5-(5-(dimethylcarbamoyl)pyridin-2-yl)-N-((6-(3,3-dimethylureido)pyridin-3-yl)methyl)-1-ethyl-7-methyl-4,5,6,7-tetrahydro-1H-pyrazolo[4,3-c]pyridine-3-carboxamide] | 26 nM | 5 nM
CCn1nc(C(=O)NCc2ccc(NC(=O)N(C)C)nc2)c2c1[C@@H](C)CN(c1ncc(C(=O)N(C)C)cn1)C2 [Example 324, (S)-5-(5-(dimethylcarbamoyl)pyrimidin-2-yl)-N-((6-(3,3-dimethylureido)pyridin-3-yl)methyl)-1-ethyl-7-methyl-4,5,6,7-tetrahydro-1H-pyrazolo[4,3-c]pyridine-3-carboxamide] | 18 nM | 5 nM

The remaining lines, values ahead:

IC50 [1] | EC50 [2] | Compound
> 30000 nM | 3570 nM | CCC(C)(C)n1nc(C(=O)NCc2ccc(NC(=O)N(C)C)cc2)c2c1CCN(c1ccc(C(=O)N(C)C)cn1)C2 [Example 261, 5-(5-(dimethylcarbamoyl)pyridin-2-yl)-N-(4-(3,3-dimethylureido)benzyl)-1-(tert-pentyl)-4,5,6,7-tetrahydro-1H-pyrazolo[4,3-c]pyridine-3-carboxamide]
130 nM | 9 nM | CC(C1CCC1)n1nc(C(=O)NCc2ccc(NC(=O)N(C)C)cc2)c2c1CCN(c1ccc(C(=O)N(C)C)cn1)C2 (centres unmarked) [Example 263, 1-(1-cyclobutylethyl)-5-(5-(dimethylcarbamoyl)pyridin-2-yl)-N-(4-(3,3-dimethylureido)benzyl)-4,5,6,7-tetrahydro-1H-pyrazolo[4,3-c]pyridine-3-carboxamide]
45 nM | 3 nM | CC(C)n1nc(C(=O)NCc2ccc(NC(=O)N(C)C)cc2)c2c1C1(CC1)CN(c1ccc(C(=O)N(C)C)cn1)C2 [Example 266, 5′-(5-(dimethylcarbamoyl)pyridin-2-yl)-N-(4-(3,3-dimethylureido)benzyl)-1′-isopropyl-1′,4′,5′,6′-tetrahydrospiro[cyclopropane-1,7′-pyrazolo[4,3-c]pyridine]-3′-carboxamide]
253 nM | 5 nM | CC(n1nc(C(=O)NCc2ccc(NC(=O)N(C)C)cc2)c2c1CCN(c1ccc(C(=O)N(C)C)cn1)C2)C(C)(C)C (centres unmarked) [Example 278, 1-(3,3-dimethylbutan-2-yl)-5-(5-(dimethylcarbamoyl)pyridin-2-yl)-N-(4-(3,3-dimethylureido)benzyl)-4,5,6,7-tetrahydro-1H-pyrazolo[4,3-c]pyridine-3-carboxamide]
94 nM | 9 nM | CC(C)Cn1nc(C(=O)NCc2ccc(NC(=O)N(C)C)cc2)c2c1CCN(c1ccc(C(=O)N(C)C)cn1)C2 [Example 279, 5-(5-(dimethylcarbamoyl)pyridin-2-yl)-N-(4-(3,3-dimethylureido)benzyl)-1-isobutyl-4,5,6,7-tetrahydro-1H-pyrazolo[4,3-c]pyridine-3-carboxamide]
> 3060 nM | 663 nM | CC(C)n1nc(C(=O)NCc2ccc(NC(=O)N(C)C)cc2)c2c1CCN(c1ccc(CC(=O)N(C)C)cn1)C2 [Example 286, 5-(5-(2-(Dimethylamino)-2-oxoethyl)pyridin-2-yl)-N-(4-(3,3-dimethylureido)benzyl)-1-isopropyl-4,5,6,7-tetrahydro-1H-pyrazolo[4,3-c]pyridine-3-carboxamide]
718 nM | 287 nM | CN(C)C(=O)Nc1ccc(CNC(=O)c2nn(CCC#N)c3c2CN(c2ccc(C(=O)N(C)C)cn2)CC3)cc1 [Example 308, 1-(2-cyanoethyl)-5-(5-(dimethylcarbamoyl)pyridin-2-yl)-N-(4-(3,3-dimethylureido)benzyl)-4,5,6,7-tetrahydro-1H-pyrazolo[4,3-c]pyridine-3-carboxamide]
4100 nM | 1710 nM | CN(C)C(=O)Nc1ccc(CNC(=O)c2nn(CCC(N)=O)c3c2CN(c2ccc(C(=O)N(C)C)cn2)CC3)cc1 [Example 309, 1-(3-amino-3-oxopropyl)-5-(5-(dimethylcarbamoyl)pyridin-2-yl)-N-(4-(3,3-dimethylureido)benzyl)-4,5,6,7-tetrahydro-1H-pyrazolo[4,3-c]pyridine-3-carboxamide]
> 20500 nM | 5370 nM | CNC(=O)Cc1ccc(N2CCc3c(c(C(=O)NCc4ccc(NC(=O)N(C)C)cc4)nn3C(C)C)C2)nc1 [Example 337, N-(4-(3,3-dimethylureido)benzyl)-1-isopropyl-5-(5-(2-(methylamino)-2-oxoethyl)pyridin-2-yl)-4,5,6,7-tetrahydro-1H-pyrazolo[4,3-c]pyridine-3-carboxamide]
